“Also recorded” adds a separate entry of the source. Read-outs that look alike come from different tables or passages of the source.
How the values were obtained:
HT-29 cells = assay: Annexin V staining apoptosis assay; conditions: for HT-29 cell apoptosis at the late-stage / HT-29 cells undergoing early apoptosis: 72 h
Protocol: Lower left quadrant: the percentage of viable cells; lower right quadrant: the percentage of apoptotic cells; upper left quadrant: the percentage of necrotic cells; upper right quadrant: the percentage of the late-stage apoptotic or dead cells.
Annexin V Staining Method. […] The cells were washed with Annexin V binding buffer, centrifuged at 300×g for 10 min, and suspended (1×10^6) in 100 μL, of 1× Annexin V binding buffer. Then, 10 μL of Annexin fluorochrome was added to the suspension. After the suspension was mixed and incubated in a dark room at room temperature for 15 min, the cells were centrifuged, and the cell pellet was resuspended (1×10^6) in 100 μL of 1× Annexin V binding buffer. Next, 10 μL of Anti-Biotin-APC were added, and the cells incubated at 4-8° C. in a dark room for 10 min were centrifuged, The cell pellet was resuspended (1×10^6) in 500 μL of 1× Annexin V Binding Buffer. After 5 μg/mL of 7-AAD solution was added in the suspension, flow cytometry was conducted immediately.

[1] = tested on: human colon cancer HT-29 cells implanted in NCr nu/nu mice; conditions: ip once daily for four days; for activity in in vivo hollow fiber assay (HT-29 cell growth): 5.0-20.0 mg/kg; for toxicity in mice of the hollow fiber assay: up to 20.0 mg/kg
Protocol: Mice were treated with the indicated doses of 1 once a day by intraperitoneal injection from day 3 to day 6 after implantation of the HT-29 cells facilitated in hollow fibers.
In Vivo Hollow Fiber Assay. […] The human colon cancer cell line HT-29 was used to evaluate 1 using procedures previously described (Mi Q et al. J. Nat. Prod 2009, 72,573-580; Pearce C J et al. Methods Mol. Biol, 2012, 944, 267-277). Eight- to nine-week-old immunodeficient NCr nu/nu mice were purchased from The Jackson Laboratory (Bar Harbor, Me., USA) and housed in microisolation cages at room temperature and a relative humidity of 50-60% under 12:12 h light-dark cycle. […] The mixture was diluted with distilled water to 13% DMSO and 25% CREMOPHOR™. The mice were injected ip once daily for four days with 1 or the positive control (paclitaxel). Each mouse was weighed daily during the study. […] The fibers were retrieved and viable cell mass was evaluated by a modified MTT (3-(4,5-dimethylthiazol-2-yl)-2,5-diphenyltetrazolium bromide) assay. The percentage of the net growth for the cells in each treatment group was calculated by subtracting the day 0 absorbance from the day 7 absorbance and dividing this difference by the net growth in the vehicle control (minus value between the day 7 and the day). Data were compared by the Student's t test, and a p value less than 0.05 was considered statistically significant.
Immunodeficient NCr nu/nu mice implanted with human colon cancer HT-29 cells placed in hollow fibers were treated once daily by 1 at doses of 5.0, 10.0, 15.0, or 20.0 mg/kg, or the vehicle control, or paclitaxel (5 mg/kg), by intraperitoneal (ip) injection tier four days. The relative FIT-29 cell growth values from all mice were calculated.

[2] = tested on: HT-29 human colon cancer cells; assay: Cytotoxicity against HT-29 cells
Protocol: (§1) The cytotoxicity of the test compounds was screened against HT-29 cells by a previously reported procedure (Ren Y et al. J. Nat. Prod 2011, 74, 1117-1125). Paclitaxel and etoposide were used as positive controls.
(§2) All arylnaphthalene lignans isolated from P. poilanet in the present study and their semi-synthetic analogues were evaluated for their cytotoxicity against HT-29 human colon cancer cells, using paclitaxel as the positive control (Table 6) (Ren Y et al. J. Nat. Prod 2011, 74, 1117-1125).

topo IIα = topo IIα (Homo sapiens, UniProt P11388); assay: Topoisomerase II assay (DNA cleavage/relaxation); type: biochemical; conditions: 100 μM test compound
Chain of topo IIα (P11388 whole entry): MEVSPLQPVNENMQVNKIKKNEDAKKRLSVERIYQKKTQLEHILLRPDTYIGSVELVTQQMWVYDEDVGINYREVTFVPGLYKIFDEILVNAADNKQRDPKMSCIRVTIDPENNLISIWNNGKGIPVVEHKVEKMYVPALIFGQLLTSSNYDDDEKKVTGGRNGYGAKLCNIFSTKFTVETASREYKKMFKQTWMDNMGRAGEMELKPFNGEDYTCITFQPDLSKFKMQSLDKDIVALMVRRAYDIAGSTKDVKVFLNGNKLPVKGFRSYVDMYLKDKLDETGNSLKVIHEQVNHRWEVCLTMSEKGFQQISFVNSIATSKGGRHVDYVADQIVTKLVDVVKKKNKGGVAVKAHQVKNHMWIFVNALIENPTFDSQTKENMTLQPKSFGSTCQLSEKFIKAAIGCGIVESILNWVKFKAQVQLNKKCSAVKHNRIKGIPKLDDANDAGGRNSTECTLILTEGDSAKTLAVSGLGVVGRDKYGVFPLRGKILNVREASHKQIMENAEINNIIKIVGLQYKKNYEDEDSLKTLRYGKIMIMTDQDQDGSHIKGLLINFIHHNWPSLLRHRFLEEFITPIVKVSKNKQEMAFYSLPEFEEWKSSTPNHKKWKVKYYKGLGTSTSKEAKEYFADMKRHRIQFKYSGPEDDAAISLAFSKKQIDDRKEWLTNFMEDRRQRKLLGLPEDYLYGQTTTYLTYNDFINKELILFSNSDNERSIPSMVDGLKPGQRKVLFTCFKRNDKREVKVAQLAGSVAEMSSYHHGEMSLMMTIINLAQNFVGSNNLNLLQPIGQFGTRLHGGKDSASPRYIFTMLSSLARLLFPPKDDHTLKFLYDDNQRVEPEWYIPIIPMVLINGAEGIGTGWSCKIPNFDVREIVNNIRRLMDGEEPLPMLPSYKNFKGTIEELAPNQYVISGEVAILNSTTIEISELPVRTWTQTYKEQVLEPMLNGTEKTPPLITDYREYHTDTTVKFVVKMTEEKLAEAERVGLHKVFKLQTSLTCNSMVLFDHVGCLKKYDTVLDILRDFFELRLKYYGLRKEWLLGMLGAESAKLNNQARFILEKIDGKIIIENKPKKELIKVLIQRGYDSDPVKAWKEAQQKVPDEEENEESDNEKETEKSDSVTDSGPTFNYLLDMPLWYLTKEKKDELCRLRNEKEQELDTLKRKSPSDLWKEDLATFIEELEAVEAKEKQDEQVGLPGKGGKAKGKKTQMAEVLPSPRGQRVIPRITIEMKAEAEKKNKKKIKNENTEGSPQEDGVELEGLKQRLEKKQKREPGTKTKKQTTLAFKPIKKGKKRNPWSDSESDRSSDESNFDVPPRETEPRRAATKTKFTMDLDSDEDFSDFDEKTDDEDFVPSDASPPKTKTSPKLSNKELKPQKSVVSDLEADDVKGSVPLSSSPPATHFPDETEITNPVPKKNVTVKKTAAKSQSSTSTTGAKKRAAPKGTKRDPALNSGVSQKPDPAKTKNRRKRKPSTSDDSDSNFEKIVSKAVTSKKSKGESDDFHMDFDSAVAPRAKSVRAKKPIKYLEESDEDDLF
From the text: The formation of linear DNA was detected by separating the SDS-treated reaction products using ethidium bromide gel electrophoresis and quantified by accounting for the relationship between fluorescence and relative band intensity for open circular (OC), linear (LNR), supercoiled (SC), and relaxed (RLX) configurations of DNA.
Topoisomerase II Assay. […] The formation of linear DNA was detected by separating the SDS-treated reaction products using ethidium bromide gel electrophoresis by a modification of a previously described procedure (Hasinoff B B et al. Mol. Pharmacol. 2005, 67, 937-947). In this system, topo II-mediated catalytic conversion of supercoiled pBR322 DNA to the “relaxed” form of plasmic' DNA can also be observed. A 20 μL cleavage assay reaction mixture contained 250 ng topo IIα protein, 160 ng pBR322 plasmid DNA (NEB, Ipswich, Mass.), 1.0 mM ATP in assay buffer (10 mM Tris-HCl (pH 7.5), 50 mM KCl, 50 mM NaCl, 0.1 mM EDTA, 5 mM MgCl2, 2.5% glycerol), and 100 μM of test compounds or DMSO solvent, as indicated. Assay buffer (17 μL) and test compound/DMSO (1 μL) were mixed and allowed to sit at room temperature for 30 min after which 2 μL of topo IIα was added to initiate the reaction. Tubes were incubated at 37° C. for 15 min, and then quenched with 1% (v/v) SDS/10 mM disodium EDTA/200 mM NaCl. The mixture was treated subsequently with 0.77 mg/mL proteinase K (Sigma) at 55° C. for 60 min to digest the protein, and DNA bands were separated by electrophoresis (18 h at 2 V/cm) on an agarose gel (1.3% w/v) containing 0.7 μg/mL ethidium bromide in TAE buffer pH 8.0 (40 mM Tris base, 0.114% (v/v) glacial acetic acid, 2 mM EDTA). The DNA in the gel was imaged by its fluorescence on a Chemi-Doc XRS+ imager (Bio-Rad, Hercules, Calif.). Linear DNA was quantified by accounting for the relationship between fluorescence and relative band intensity for open circular (QC), linear (LNR), supercoiled (SC), and RLX (relaxed) configurations of DNA (Projan S J et al. Plasmid 1983, 9, 182-190), then calculating % of LNR from the total DNA content in each lane.

[3] = tested on: CCD-112CoN normal human colon cells; assay: Cytotoxicity against CCD-112CoN cells; conditions: for IC50: read-out: IC50 values toward the CCD-112 CoN cells
From the text: Following a previous procedure (Still P C et al. J. Nat. Prod. 2013, 76, 243-249) and the method for screening cytotoxicity towards HT-29 cells mentioned above, the cytotoxicity of the samples was screened against CCD-112CoN normal human colon cells.

[4] = tested on: HT-29 human colon cancer cells
Protocol: as §1, §2

[5] = read-out: IC50 values toward the HT-29 cells, Table 6, triplicate, two independent experiments
[6] = Homo sapiens, HT-29, read-out: IC50 values toward the HT-29 cells

## COc1cc2c(O[C@@H]3OC[C@H](OC(C)=O)[C@H](OC(C)=O)[C@H]3O)c3c(c(-c4ccc5c(c4)OCO5)c2cc1OC)C(=O)OC3 [Compound 1, 7-O-[(3,4-di-O-acetyl)-α-L-arabinopyranosyl] diphyllin]
HT-29 cells
  HT-29 cell apoptosis induction (in words): inducing tumor cell apoptosis; also recorded: induction of tumor cell apoptosis; also recorded: can induce HT-29 cell apoptosis
HT-29 cells; 1 μM
  HT-29 cell apoptosis at the late-stage: 27.3%
  HT-29 cells undergoing early apoptosis: 28.2%
HT-29 cells; 5 μM
  HT-29 cell apoptosis at the late-stage: 38.0%
  HT-29 cells undergoing early apoptosis: 30.3%
[1]
  activity in in vivo hollow fiber assay (HT-29 cell growth): showed activity; also recorded: dose dependent tendency; also recorded: active; also recorded: antitumor efficacy in vivo
  toxicity in mice of the hollow fiber assay: no signs of toxicity; also recorded: No gross toxicity; also recorded: without any gross toxicity
[1]; listed as Phyllanthusmin D
  activity in in vivo hollow fiber assay (HT-29 cell growth): active
  toxicity in mice of the hollow fiber assay: no signs of gross toxicity
[2]; read-out: ED50, toxicity towards HT-29 cells, natural samples
  EC50: 170 nM
[2]; read-out: IC50, cytotoxicity toward HT-29 cells
  IC50: 170 nM
Topo IIα
  topo IIα inhibition (in words): did not inhibit DNA topoisomerase IIα activity; also recorded: not topo Ha inhibitors; also recorded: no inhibitory activity against topo IIα; also recorded: not topo IIα inhibitors
[3]
  cytotoxicity toward CCD-112CoN human normal colon cells (in words): non-cytotoxic
[3]; Table 6
  IC50: > 100000 nM

## COc1cc2c(O[C@@H]3OC[C@H](O)[C@H](OC(C)=O)[C@H]3O)c3c(c(-c4ccc5c(c4)OCO5)c2cc1OC)C(=O)OC3 [Compound 2, 7-O-[(3-O-acetyl)-α-L-arabinopyranosyl] diphyllin]
[2]; [5]
  IC50: 1800 nM

## COc1cc2c(O[C@@H]3OC[C@H](OC(C)=O)[C@H](O)[C@H]3O)c3c(c(-c4ccc5c(c4)OCO5)c2cc1OC)C(=O)OC3 [Compound 3, Phyllanthusmin B]
[4]
  cytotoxicity toward HT-29 cells (in words): cytotoxic
[2]; [5]
  IC50: 1800 nM

## COc1cc2c(O[C@@H]3O[C@H](CO)[C@@H](O)[C@H](O)[C@H]3O)c3c(c(-c4ccc5c(c4)OCO5)c2cc1OC)C(=O)OC3 [Compound 5, Cleistanthin B]
[2]; [5]
  IC50: > 10000 nM

## COc1cc2c(OC)c3c(c(-c4ccc5c(c4)OCO5)c2cc1O)C(=O)OC3 [Compound 6, Phyllanthusmin A]
[4]
  cytotoxicity toward HT-29 cells (in words): inactive
[2]; [5]
  IC50: > 10000 nM

## COc1cc2c(O)c3c(c(-c4ccc5c(c4)OCO5)c2cc1OC)C(=O)OC3 [Compound 8, Diphyllin]
[2]; [6]
  IC50: 7600 nM

## COc1cc([C@@H]2c3cc4c(cc3[C@@H](O[C@@H]3O[C@@H]5CO[C@@H](C)O[C@H]5[C@H](O)[C@H]3O)[C@H]3COC(=O)[C@H]23)OCO4)cc(OC)c1O [etoposide, reference compound]
HT-29 cells; 1 μM
  HT-29 cell apoptosis at the late-stage: 19.8%
  HT-29 cells undergoing early apoptosis: 12.9%
HT-29 cells; 5 μM
  HT-29 cell apoptosis at the late-stage: 25.3%
  HT-29 cells undergoing early apoptosis: 12.5%
[2]; [6]
  IC50: > 10000 nM

## CC(=O)O[C@H]1C(=O)[C@@]2(C)[C@H]([C@H](OC(=O)c3ccccc3)[C@]3(O)C[C@H](OC(=O)[C@H](O)[C@@H](NC(=O)c4ccccc4)c4ccccc4)C(C)=C1C3(C)C)[C@]1(OC(C)=O)CO[C@@H]1C[C@@H]2O [paclitaxel, reference compound]
[2]; [6]
  IC50: 1 nM
[3]; Homo sapiens, CCD-112CoN
  IC50: 23000 nM

From patent publication US20170119806A1, “[…] LACTONE DERIVATIVES AND METHODS OF MAKING AND USING THEREOF” (OHIO STATE INNOVATION FOUNDATION, priority 2014, published 2017)
